The values below come from patent publication US11447466B2, “Substituted indole compounds useful as inhibitors of TLR7/8/9” (BRISTOL-MYERS SQUIBB COMPANY, priority 2017, dated 2022).

Structures are written as SMILES.

Holding throughout (assay type): cell-based
One test has as its target T1, human TLR7 (Homo sapiens, UniProt Q9NYK1).
T1 construct: host or cells: HEK-Blue cells
T1 sequence (Q9NYK1 27-1049): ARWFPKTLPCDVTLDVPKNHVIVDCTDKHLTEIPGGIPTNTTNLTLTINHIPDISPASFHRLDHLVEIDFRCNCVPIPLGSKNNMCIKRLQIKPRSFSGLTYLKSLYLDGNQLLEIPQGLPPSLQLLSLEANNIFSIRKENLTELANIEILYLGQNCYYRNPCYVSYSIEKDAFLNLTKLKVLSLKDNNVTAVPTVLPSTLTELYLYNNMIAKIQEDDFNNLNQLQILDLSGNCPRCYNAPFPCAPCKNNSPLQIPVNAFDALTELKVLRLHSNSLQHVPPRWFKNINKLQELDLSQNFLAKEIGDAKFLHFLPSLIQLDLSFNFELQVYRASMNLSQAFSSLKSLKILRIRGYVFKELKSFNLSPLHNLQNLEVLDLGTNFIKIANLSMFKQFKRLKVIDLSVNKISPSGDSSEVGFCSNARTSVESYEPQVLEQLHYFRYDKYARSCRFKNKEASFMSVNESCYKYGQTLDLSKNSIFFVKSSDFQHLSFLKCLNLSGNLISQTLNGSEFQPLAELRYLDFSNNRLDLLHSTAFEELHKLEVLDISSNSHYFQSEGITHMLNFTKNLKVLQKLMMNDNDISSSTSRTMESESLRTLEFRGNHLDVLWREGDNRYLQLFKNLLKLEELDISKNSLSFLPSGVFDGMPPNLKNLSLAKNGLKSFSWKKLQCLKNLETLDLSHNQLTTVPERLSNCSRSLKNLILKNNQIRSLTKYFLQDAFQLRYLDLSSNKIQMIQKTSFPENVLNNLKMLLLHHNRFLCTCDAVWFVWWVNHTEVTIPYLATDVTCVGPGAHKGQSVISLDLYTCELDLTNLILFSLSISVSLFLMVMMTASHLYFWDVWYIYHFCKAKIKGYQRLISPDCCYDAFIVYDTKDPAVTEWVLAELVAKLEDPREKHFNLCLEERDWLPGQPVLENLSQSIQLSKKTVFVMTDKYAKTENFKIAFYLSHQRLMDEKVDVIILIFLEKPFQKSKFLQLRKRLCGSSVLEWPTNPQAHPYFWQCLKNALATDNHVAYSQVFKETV
Put plainly: TLR7 inhibition reporter assay (HEK-Blue SEAP reporter, gardiquimod stimulation). The note with it: HEK-Blue cells overexpressing human TLR7, SEAP reporter, gardiquimod 7.5 μM, 22 hour incubation. In outline:
(§1)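 Dose–response from 0.05 nM to 50 μM was run in HEK-Blue human TLR7, TLR8 and TLR9 reporter cells. After 30 min at room temperature with compound, ligand was added (TLR7 gardiquimod 7.5 μM; TLR8 R848 15.9 μM; TLR9 ODN2006 5 nM) and SEAP measured next day, at 22 h.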
On the technique in general: In a reporter assay the amount or activity of a reporter protein is the signal.

Another test concerns the target T2, human TLR8 (Homo sapiens, UniProt Q9NR97).
T2 construct: host or cells: HEK-Blue cells
T2 sequence (Q9NR97 27-1041): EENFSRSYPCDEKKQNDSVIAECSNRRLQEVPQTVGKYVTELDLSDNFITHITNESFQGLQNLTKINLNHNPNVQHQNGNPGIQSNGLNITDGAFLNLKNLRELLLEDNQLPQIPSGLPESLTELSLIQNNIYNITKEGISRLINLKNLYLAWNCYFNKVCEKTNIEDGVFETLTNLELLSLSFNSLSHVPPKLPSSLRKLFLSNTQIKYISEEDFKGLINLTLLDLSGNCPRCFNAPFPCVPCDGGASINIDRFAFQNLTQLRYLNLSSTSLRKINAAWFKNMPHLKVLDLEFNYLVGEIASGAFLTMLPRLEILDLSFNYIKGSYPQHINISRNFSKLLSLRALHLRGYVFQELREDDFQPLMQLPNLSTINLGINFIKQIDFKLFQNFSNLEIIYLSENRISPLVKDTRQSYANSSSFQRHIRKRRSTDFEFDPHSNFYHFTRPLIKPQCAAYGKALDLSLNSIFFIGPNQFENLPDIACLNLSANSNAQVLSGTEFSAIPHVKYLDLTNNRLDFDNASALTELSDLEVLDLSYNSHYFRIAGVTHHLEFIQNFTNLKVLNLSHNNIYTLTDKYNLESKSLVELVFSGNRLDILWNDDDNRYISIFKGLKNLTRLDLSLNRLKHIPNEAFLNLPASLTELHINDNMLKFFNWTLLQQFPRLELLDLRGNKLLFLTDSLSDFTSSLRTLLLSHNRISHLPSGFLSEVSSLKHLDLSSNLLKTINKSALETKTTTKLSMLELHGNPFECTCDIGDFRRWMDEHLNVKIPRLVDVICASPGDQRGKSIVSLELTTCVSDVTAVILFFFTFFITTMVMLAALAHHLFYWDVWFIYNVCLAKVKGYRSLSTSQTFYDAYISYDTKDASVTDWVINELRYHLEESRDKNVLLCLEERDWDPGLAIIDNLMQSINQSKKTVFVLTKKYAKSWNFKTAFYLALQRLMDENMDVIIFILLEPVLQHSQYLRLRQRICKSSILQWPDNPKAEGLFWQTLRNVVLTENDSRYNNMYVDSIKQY
Put plainly: TLR8 inhibition reporter assay (HEK-Blue SEAP reporter, R848 stimulation). To be noted: HEK-Blue cells overexpressing human TLR8, SEAP reporter, R848 15.9 μM, 22 hour incubation. In short, it runs like this: as §1

Another test concerns the target T3, human TLR9 (Homo sapiens, UniProt Q9NR96).
T3 construct: host or cells: HEK-Blue cells
T3 sequence (Q9NR96 26-1032): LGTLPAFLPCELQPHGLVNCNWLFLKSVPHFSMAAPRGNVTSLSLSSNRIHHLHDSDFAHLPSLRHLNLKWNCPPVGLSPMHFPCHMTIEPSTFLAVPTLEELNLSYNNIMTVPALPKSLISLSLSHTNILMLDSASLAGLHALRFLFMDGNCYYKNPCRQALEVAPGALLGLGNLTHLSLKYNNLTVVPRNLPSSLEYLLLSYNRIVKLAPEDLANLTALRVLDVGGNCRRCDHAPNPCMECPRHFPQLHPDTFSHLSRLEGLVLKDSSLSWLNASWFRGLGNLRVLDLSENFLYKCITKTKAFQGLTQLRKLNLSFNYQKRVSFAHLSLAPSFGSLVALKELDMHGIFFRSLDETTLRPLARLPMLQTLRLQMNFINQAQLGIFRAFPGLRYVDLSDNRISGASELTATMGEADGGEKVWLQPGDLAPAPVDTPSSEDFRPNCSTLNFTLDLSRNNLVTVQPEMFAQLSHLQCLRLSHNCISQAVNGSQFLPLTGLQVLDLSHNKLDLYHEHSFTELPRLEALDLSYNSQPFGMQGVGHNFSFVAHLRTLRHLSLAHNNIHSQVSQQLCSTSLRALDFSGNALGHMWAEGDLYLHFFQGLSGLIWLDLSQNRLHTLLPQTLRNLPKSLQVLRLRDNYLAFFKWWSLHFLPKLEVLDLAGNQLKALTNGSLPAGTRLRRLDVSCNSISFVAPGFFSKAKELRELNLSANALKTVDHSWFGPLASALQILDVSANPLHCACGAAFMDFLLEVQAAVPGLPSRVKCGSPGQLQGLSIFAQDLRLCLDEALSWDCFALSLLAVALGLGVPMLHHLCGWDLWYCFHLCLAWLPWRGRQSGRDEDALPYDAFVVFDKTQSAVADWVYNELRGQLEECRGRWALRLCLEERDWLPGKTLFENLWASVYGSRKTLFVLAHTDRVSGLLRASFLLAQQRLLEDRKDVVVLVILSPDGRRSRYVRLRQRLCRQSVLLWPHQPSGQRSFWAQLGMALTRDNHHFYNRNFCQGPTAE
Put plainly: TLR9 inhibition reporter assay (HEK-Blue SEAP reporter, ODN2006 stimulation). The note with it: HEK-Blue cells overexpressing human TLR9, SEAP reporter, ODN2006 5 nM, 22 hour incubation. In short, it runs like this:
as §1

The term IC50 denotes the concentration that inhibits the measured activity by half. Consider `COCCN1CCC(c2ccc3[nH]c(-c4cc(-c5cnn(C)c5)c(=O)n(C)c4)c(C(C)C)c3c2)CC1` [Example 350, 5-(3-isopropyl-5-(1-(2-methoxyethyl)piperidin-4-yl)-1H-indol-2-yl)-1-methyl-3-(1-methyl-1H-pyrazol-4-yl)pyridin-2(1H)-one], for which the IC50 at human TLR7 came out at 14.4 nM; against human TLR8 it was 1.4 nM; against human TLR9, 2140 nM.
For `C=C(C)c1cc(-c2[nH]c3ccc(C4CCNCC4)cc3c2C(C)C)cn(C)c1=O` [Example 51, 5-(3-isopropyl-5-(piperidin-4-yl)-1H-indol-2-yl)-1-methyl-3-(prop-1-en-2-yl)pyridin-2(1H)-one], in that order: 10.9 nM, 30.6 nM and 2580 nM.
For `Cc1c(-c2[nH]c3ccc(C4CCN(C(C)C)CC4)cc3c2C(C)C)cn(C)c(=O)c1C` [Example 212, 5-(3-isopropyl-5-(1-isopropylpiperidin-4-yl)-1H-indol-2-yl)-1,3,4-trimethylpyridin-2(1H)-one], in that order: 17.1 nM, 17.4 nM and 12600 nM.
For the molecule `Cc1cc(-c2[nH]c3ccc(C4CCN(CC5CC5(F)F)CC4)cc3c2C(C)C)cn(C)c1=O` (stereo not drawn) [Example 83, 5-(5-(1-((2,2-difluorocyclopropyl)methyl)piperidin-4-yl)-3-isopropyl-1H-indol-2-yl)-1,3-dimethylpyridin-2(1H)-one], the IC50 was 3.9 nM at human TLR7, 1.2 nM against human TLR8 and 7140 nM at human TLR9.
With `Cc1cc(-c2[nH]c3ccc(C4CCN(C)CC4)cc3c2C(C)C)cn(CC(F)F)c1=O` [Example 266, 1-(2,2-difluoroethyl)-5-(3-isopropyl-5-(1-methylpiperidin-4-yl)-1H-indol-2-yl)-3-methylpyridin-2(1H)-one], the results for the IC50 against human TLR7, against human TLR8 and against human TLR9 were 11.6 nM, 15.8 nM and 4480 nM, respectively.
For the molecule `CC(C)c1c(-c2ccc(=O)n(C)c2)[nH]c2ccc(C3CCN(C(=O)CN(C)C)CC3)cc12` [Example 301, 5-(5-(1-(dimethylglycyl)piperidin-4-yl)-3-isopropyl-1H-indol-2-yl)-1-methylpyridin-2(1H)-one], the IC50 at human TLR7 is 25.7 nM; at human TLR8, 36.5 nM; on human TLR9 it was 1830 nM.
Consider `CCNC(=O)CN1CCC(c2ccc3[nH]c(-c4cn(C)c(=O)c(Cl)c4C)c(C(C)C)c3c2)CC1` [Example 155, 2-(4-(2-(5-chloro-1,4-dimethyl-6-oxo-1,6-dihydropyridin-3-yl)-3-isopropyl-1H-indol-5-yl)piperidin-1-yl)-N-ethylacetamide], for which the IC50 against human TLR7 stood at 5.3 nM; at human TLR8 it was 24.2 nM; on human TLR9, 21100 nM.
As for `CC(C)c1c(-c2cc(-c3cncnc3)c(=O)n(C)c2)[nH]c2ccc(C3CCN(C)CC3)cc12` [Example 246, 5-(3-isopropyl-5-(1-methylpiperidin-4-yl)-1H-indol-2-yl)-1-methyl-3-(pyrimidin-5-yl)pyridin-2(1H)-one], the half-maximal inhibitory concentration (IC50) against human TLR7 was 2.9 nM; on human TLR8 it was 1.7 nM; against human TLR9, 387 nM.
For `Cc1cc(-c2cc(-c3[nH]c4ccc(C5CCN(C(C)C)CC5)cc4c3C(C)C)cn(C)c2=O)cnc1F` [Example 343, 6′-fluoro-5-(3-isopropyl-5-(1-isopropylpiperidin-4-yl)-1H-indol-2-yl)-1,5′-dimethyl-[3,3′-bipyridin]-2(1H)-one], in that order: 18.3 nM, 14.2 nM and 1170 nM.
For `COc1c(C)c(-c2[nH]c3ccc(C4CCN(C5COC5)CC4)cc3c2C(C)C)cn(C)c1=O` [Example 215, 5-(3-isopropyl-5-(1-(oxetan-3-yl)piperidin-4-yl)-1H-indol-2-yl)-3-methoxy-1,4-dimethylpyridin-2(1H)-one], in that order: 66.1 nM, 54.9 nM and 17200 nM.
Consider `COCCN1CCC(c2ccc3[nH]c(-c4cc(-c5cncnc5)c(=O)n(C)c4)c(C(C)C)c3c2)CC1` [Example 103, 5-(3-isopropyl-5-(1-(2-methoxyethyl)piperidin-4-yl)-1H-indol-2-yl)-1-methyl-3-(pyrimidin-5-yl)pyridin-2(1H)-one], for which the half-maximal inhibitory concentration (IC50) came out at 9.6 nM on human TLR7, 1.3 nM against human TLR8 and 2080 nM on human TLR9.
For `Cc1cc(-c2[nH]c3ccc(C4CCN(C5CCC(C(F)(F)F)CC5)CC4)cc3c2C(C)C)cn(C)c1=O` (stereo not drawn) [Example 231, 5-(3-isopropyl-5-(1-(4-(trifluoromethyl)cyclohexyl)piperidin-4-yl)-1H-indol-2-yl)-1,3-dimethylpyridin-2(1H)-one], in that order: 7 nM, 22.3 nM and 3230 nM.
